{"source": "patent US20260027068A1", "about": "“METHODS OF ADM[…]-KETAMINE” (Perception Neuroscience, Inc., priority 2022, published 2026)", "test_system": "subjects with TRD", "experiment": "MADRS total score after a single 40-minute IV infusion, double-blind placebo-controlled study in TRD", "type": "in vivo, human", "conditions": "60 mg; for Change from Baseline MADRS Total Score, Adjusted mean (SE) / Diff. Adjusted mean (SE) R(−)ketamine - Placebo: MMRM", "method": "This was a double-blind, randomized, placebo-controlled, multicenter study comprised of 3 phases: screening (up to 2 weeks [day-15 to day-2]), in-clinic treatment (day-1 to day 2; including double-blind treatment [day 1]), and post-treatment follow-up (7 and 14 days after infusion on days 8 and 15, respectively). The study consisted of 3 arms: placebo, R(−)-ketamine solution (30 mg), and R(−)-ketamine solution (60 mg.) A total of 101 adult subjects with TRD were randomly allocated in cohorts of 33-35 subjects/arm to the 3 arms of the study in a blinded manner.\nThe subjects were randomized within 14 days of screening (Visit 1). Subjects were admitted to the clinic the evening prior to study treatment administration (day-1, Visit 2) and underwent baseline testing to ensure continued study eligibility. Study treatments were infused IV over 40 minutes the next morning (day 1, Visit 2). Starting immediately prior to dosing, subjects were monitored closely for safety.\nTo determine the efficacy of two doses (30 mg and 60 mg) of intravenous (IV) R(−)-ketamine hydrochloride, the doses were administered as an IV infusion over 40 minutes. These doses are within the range shown to be well-tolerated in a Phase 1 study in healthy volunteers. […] The 10-item clinician-administered MADRS was designed to be used in subjects with MDD to measure the overall severity of depressive symptoms. The MADRS scale is validated, reliable, and acceptable to regulatory health authorities as a primary scale to determine efficacy in major depression.\nPopulation: Subjects with TRD in the full analysis set (FAS) and analyzed according to their randomized treatment. The analysis population includes all randomized subjects who receive any amount of study treatment and have at least one postbaseline assessment available. Variable: Change in total MADRS score from baseline at 24 hours after the start of infusion.\nMADRS total score was assessed at 2 and 4 hours, 7 and 14 days after the start of the infusion (days 8 and 15, respectively). Note, for the 2-hour and 4-hour recall periods, the sleep and appetite items were not assessed.\nProportion of subjects with ≥50% improvement in MADRS total score at 24 hours, 7 days, and 14 days after start of infusion (days 8 and 15, respectively).\nProportion of subjects with a MADRS total score≤10 at 24 hours, 7 days, and 14 days after start of infusion (days 8 and 15, respectively).\nThe 10-item MADRS was administered by the study staff to measure the overall severity of depressive symptoms. The MADRS total score was assessed at screening and baseline (Day 1 pre-dose). The primary efficacy endpoint of improvement in the MADRS total score was evaluated prior to discharge on Day 2 of Visit 2, 24 hours after the start of the infusion of study treatment. The MADRS total score was also assessed at 2 hours, 4 hours, 7 days (on Day 8), and 14 days (on Day 15) after the start of the infusion to evaluate the secondary efficacy endpoints of response (defined as ≥50% improvement in the MADRS total score from pre-dose) and remission (defined as MADRS total score≤10) in the improvement of depressive symptoms in the subjects. While the MADRS is typically used with a 7-day recall period, versions of the MADRS including 2-hour and […] recall periods were used in this study. (For the 2 hour and 4 hour periods, the sleep and appetite items were […]; pre-dose scores for these items obtained on the same day were carried forward).\nThe change from baseline in MADRS scores was summarized separately by treatment arm for each visit. Associated baseline scores were taken as the last corresponding measurement prior to the first dose of IMP in the treatment period (i.e., Visit 2, pre-dose). The primary endpoint of change from baseline MADRS total score at 24 hours post start of infusion was evaluated using a mixed effects model for repeated measure (MMRM) analysis with observed cases only. […]", "key": {"[1]": {"conditions": "Day 1, 24 hours, primary endpoint"}}}
{"smiles": "CN[C@@]1(c2ccccc2Cl)CCCCC1=O.Cl", "note": "[R(−)-ketamine, (2R)-2-(2-chlorophenyl)-2-(methylamino)cyclohexan-1-one]", "values": [{"measurement": "MADRS total score, Mean", "setting": "2 hours", "result": 18.4}, {"measurement": "MADRS total score, Median", "setting": "2 hours", "result": 20.0}, {"measurement": "MADRS total score, Mean", "setting": "4 hours", "result": 17.6}, {"measurement": "MADRS total score, Median", "setting": "4 hours", "result": 18.0}, {"measurement": "MADRS total score, Mean", "setting": "24 hours (Day 2)", "result": 15.1}, {"measurement": "MADRS total score, Median", "setting": "24 hours (Day 2)", "result": 16.0}, {"measurement": "Not-responder, %", "setting": "Day 1, 2 hours", "result": 68.6, "unit": "%"}, {"measurement": "Responder (>=50% improvement of MADRS total score), %", "setting": "Day 1, 2 hours", "result": "(31.4) %"}, {"measurement": "adjusted odds ratio R-ket/placebo (95% CI)", "setting": "Day 1, 2 hours", "result": "2.031 (0.634, 6.504)"}, {"measurement": "Change from Baseline MADRS Total Score, Adjusted mean (SE)", "setting": "Day 1, 2 hours", "result": "−12.0 (1.31)"}, {"measurement": "Diff. Adjusted mean (SE) R(−)ketamine - Placebo", "setting": "Day 1, 2 hours", "result": "−2.9 (1.82) [−6.55, 0.67]"}, {"measurement": "Not-responder, %", "setting": "Day 1, 4 hours", "result": 62.9, "unit": "%"}, {"measurement": "Responder (>=50% improvement of MADRS total score), %", "setting": "Day 1, 4 hours", "result": "(37.1) %"}, {"measurement": "adjusted odds ratio R-ket/placebo (95% CI)", "setting": "Day 1, 4 hours", "result": "1.536 (0.534, 4.416)"}, {"measurement": "Change from Baseline MADRS Total Score, Adjusted mean (SE)", "setting": "Day 1, 4 hours", "result": "−12.8 (1.32)"}, {"measurement": "Diff. Adjusted mean (SE) R(−)ketamine - Placebo", "setting": "Day 1, 4 hours", "result": "−1.7 (1.83) [−5.34, 1.92]"}, {"measurement": "Not-responder, %", "setting": "Day 1, 24 hours", "result": 54.3, "unit": "%"}, {"measurement": "Responder (>=50% improvement of MADRS total score), %", "setting": "Day 1, 24 hours", "result": "(45.7) %"}, {"measurement": "adjusted odds ratio R-ket/placebo (95% CI)", "setting": "Day 1, 24 hours", "result": "0.847 (0.318, 2.254)"}, {"measurement": "Change from Baseline MADRS Total Score, Adjusted mean (SE)", "setting": "[1]", "result": "−15.3 (1.69)"}, {"measurement": "Diff. Adjusted mean (SE) R(−)ketamine - Placebo", "setting": "[1]", "result": "−1.6 (2.38) [−6.35, 3.11]"}, {"measurement": "MADRS total score, Mean", "setting": "Day 8", "result": 17.7}, {"measurement": "MADRS total score, Median", "setting": "Day 8", "result": 21.0}, {"measurement": "Not-responder, %", "setting": "Day 8", "result": 65.7, "unit": "%"}, {"measurement": "Responder (>=50% improvement of MADRS total score), %", "setting": "Day 8", "result": "(34.3) %"}, {"measurement": "adjusted odds ratio R-ket/placebo (95% CI)", "setting": "Day 8", "result": "1.202 (0.412, 3.511)"}, {"measurement": "Change from Baseline MADRS Total Score, Adjusted mean (SE)", "setting": "Day 8", "result": "−12.7 (1.72)"}, {"measurement": "Diff. Adjusted mean (SE) R(−)ketamine - Placebo", "setting": "Day 8", "result": "−1.4 (2.44) [−6.26, 3.45]"}, {"measurement": "MADRS total score, Mean", "setting": "Day 15", "result": 19.3}, {"measurement": "MADRS total score, Median", "setting": "Day 15", "result": 22.0}, {"measurement": "Not-responder, %", "setting": "Day 15", "result": 65.7, "unit": "%"}, {"measurement": "Responder (>=50% improvement of MADRS total score), %", "setting": "Day 15", "result": "(34.3) %"}, {"measurement": "adjusted odds ratio R-ket/placebo (95% CI)", "setting": "Day 15", "result": "1.715 (0.559, 5.263)"}, {"measurement": "Change from Baseline MADRS Total Score, Adjusted mean (SE)", "setting": "Day 15", "result": "−11.1 (1.73)"}, {"measurement": "Diff. Adjusted mean (SE) R(−)ketamine - Placebo", "setting": "Day 15", "result": "−1.2 (2.46) [−6.09, 3.69]"}, {"measurement": "MADRS difference from placebo", "setting": "day 15", "result": "~2", "unit": "point"}, {"measurement": "Statistical significance of the MADRS difference from placebo", "setting": "day 15", "result": "not statistically significant"}, {"measurement": "MADRS total score change from baseline, Mean", "setting": "to 2 hours", "result": "−11.3"}, {"measurement": "MADRS total score change from baseline, Median", "setting": "to 2 hours", "result": "−10.0"}, {"measurement": "MADRS total score change from baseline, Mean", "setting": "to 4 hours", "result": "−12.1"}, {"measurement": "MADRS total score change from baseline, Median", "setting": "to 4 hours", "result": "−12.0"}, {"measurement": "MADRS total score change from baseline, Mean", "setting": "to 24 hours", "result": "−14.5"}, {"measurement": "MADRS total score change from baseline, Median", "setting": "to 24 hours", "result": "−14.0"}, {"measurement": "MADRS total score change from baseline, Mean", "setting": "to Day 8", "result": "−12.0"}, {"measurement": "MADRS total score change from baseline, Median", "setting": "to Day 8", "result": "−10.0"}, {"measurement": "MADRS total score change from baseline, Mean", "setting": "to Day 15", "result": "−10.4"}, {"measurement": "MADRS total score change from baseline, Median", "setting": "to Day 15", "result": "−6.0"}]}
